The source made the active and inactive calls.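 Rule for the calls: active = mean IC50 for blocking HCV helicase binding to DNA at 50 µM or lower; inactive = mean IC50 above 50 µM.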
Target: HCV NS3 helicase (NS3h) (UniProt A3EZJ3)
Experiment: NS3h DNA-binding inhibition IC50 – biochemical, fluorescence polarization, ChemBridge library, dose response (AID 743264)
Conditions: NS3h binding Cy5-dT15 DNA

HCV NS3 helicase (NS3h), sequence (A3EZJ3 1-631): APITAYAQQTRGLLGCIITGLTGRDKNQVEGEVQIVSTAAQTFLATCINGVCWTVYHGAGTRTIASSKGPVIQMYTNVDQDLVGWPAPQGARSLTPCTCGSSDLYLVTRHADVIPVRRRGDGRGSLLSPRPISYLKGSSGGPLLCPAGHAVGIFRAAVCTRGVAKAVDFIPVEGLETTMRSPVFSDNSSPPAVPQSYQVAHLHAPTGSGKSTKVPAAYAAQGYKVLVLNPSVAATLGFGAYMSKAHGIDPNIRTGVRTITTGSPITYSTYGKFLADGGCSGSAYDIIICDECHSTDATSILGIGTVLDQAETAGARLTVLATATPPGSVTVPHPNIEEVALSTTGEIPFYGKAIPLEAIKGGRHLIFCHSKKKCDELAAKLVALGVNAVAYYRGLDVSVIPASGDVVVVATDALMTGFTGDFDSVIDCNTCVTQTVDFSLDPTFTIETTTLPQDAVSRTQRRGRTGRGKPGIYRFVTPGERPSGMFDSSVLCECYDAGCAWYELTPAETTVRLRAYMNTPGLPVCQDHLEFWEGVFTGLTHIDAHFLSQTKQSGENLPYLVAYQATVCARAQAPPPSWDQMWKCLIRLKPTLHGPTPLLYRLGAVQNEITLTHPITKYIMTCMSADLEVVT

SMILES | IC50
Cc1ccc(N2C(=O)C=CC2=O)c(Br)c1 | inactive
O=C1C=CC(=O)N1c1cccc([N+](=O)[O-])c1 | inactive

From PubChem BioAssay AID743264
